According to patent US20250221966A1, “RXFP1 AGONISTS” (BRISTOL-MYERS SQUIBB COMPANY, priority 2021, published 2025):

The compounds below were run against T1, human RXFP1 (Homo sapiens, UniProt Q9HBX9) (assay: RXFP1 cAMP assay (hRXFP1 HEK293 cAMP assay, HTRF)). Details: HEK293 cells stably expressing human RXFP1, 30 min at room temperature, read-out: cAMP hRXFP1 HEK293 Assay EC50.
T1 construct: expressed in transfected cells
T1 sequence (Q9HBX9 1-757): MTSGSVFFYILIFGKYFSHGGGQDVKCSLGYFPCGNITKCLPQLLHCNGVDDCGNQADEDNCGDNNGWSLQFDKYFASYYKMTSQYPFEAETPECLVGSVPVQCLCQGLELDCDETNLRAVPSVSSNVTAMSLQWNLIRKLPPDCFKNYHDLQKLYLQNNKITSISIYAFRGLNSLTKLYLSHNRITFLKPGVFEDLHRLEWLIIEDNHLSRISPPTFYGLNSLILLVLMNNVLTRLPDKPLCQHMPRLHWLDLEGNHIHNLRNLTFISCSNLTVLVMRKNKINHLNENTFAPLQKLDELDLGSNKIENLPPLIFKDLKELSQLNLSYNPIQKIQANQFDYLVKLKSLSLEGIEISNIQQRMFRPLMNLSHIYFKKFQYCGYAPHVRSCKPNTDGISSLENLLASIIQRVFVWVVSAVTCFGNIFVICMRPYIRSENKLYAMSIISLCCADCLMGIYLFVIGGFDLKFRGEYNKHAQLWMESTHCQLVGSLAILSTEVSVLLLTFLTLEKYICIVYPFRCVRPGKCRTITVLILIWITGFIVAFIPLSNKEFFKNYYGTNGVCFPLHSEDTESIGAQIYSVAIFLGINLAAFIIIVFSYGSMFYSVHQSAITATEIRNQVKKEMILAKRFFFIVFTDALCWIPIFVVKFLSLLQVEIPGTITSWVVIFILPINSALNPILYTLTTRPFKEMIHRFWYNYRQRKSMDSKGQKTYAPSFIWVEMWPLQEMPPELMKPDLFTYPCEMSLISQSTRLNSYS
Type: cell-based
Outline: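 hRXFP1-HEK293 stable line; HBSS + Ca/Mg, 20 mM HEPES, 0.05% BSA, 0.5 mM IBMX; cpd 0.010 nM–50 μM, 2% DMSO; 30 min RT; lysis, HTRF cAMP detection; 4-PL fit.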

In order of rising EC50:
1. COc1ccc(-c2cc(S(C)(=O)=O)ccc2F)cc1C(=O)N[C@H]1[C@@H](C(=O)Nc2ccc(F)c(C(F)(F)F)c2)[C@H]2CC[C@@H]1/C2=C\C1CCCC1 [compound 907]  0.1 nM
2. COc1ccc(-c2cc(C(COC(=O)NC3CCC3)C(F)(F)F)ccc2F)cc1C(=O)N[C@H]1[C@@H](C(=O)Nc2ccc(F)c(C(F)(F)F)c2)[C@H]2CC[C@@H]1/C2=C\C1CC1 (stereo partly shown) [compound 879]  0.9 nM
3. COc1ccc(-c2ccc(C(CC(=O)O)C(F)(F)F)cc2F)cc1C(=O)N[C@H]1[C@@H](C(=O)Nc2ccc(F)c(C(F)(F)F)c2)[C@H]2CC[C@@H]1/C2=C\C1CC1 (stereo partly shown) [compound 884]  1 nM
4. COc1ccc(-c2ccc(C3=NOC(CO)C3)cc2F)cc1C(=O)N[C@@H]1C2CCC(/C2=C/C2CCCC2)[C@@H]1C(=O)Nc1ccc(F)c(C(F)(F)F)c1 (stereo partly shown) [compound 897]  1 nM
5. COc1ccc(C2=NO[C@H]3CC(CO)C[C@@H]23)cc1C(=O)N[C@H]1[C@@H](C(=O)Nc2ccc(F)c(C(F)(F)F)c2)[C@H]2CC[C@@H]1/C2=C\CCF (stereo partly shown) [compound 814]  1.2 nM
6. COc1c(F)cc(C2=NOC3CC(CO)CC23)cc1C(=O)N[C@H]1[C@@H](C(=O)Nc2ccc(F)c(C(F)(F)F)c2)[C@H]2CC[C@@H]1/C2=C\CCC(F)(F)F (stereo partly shown) [compound 792]  1.4 nM
7. CNC(=O)C(OC(=O)Nc1ccccc1)c1ccc(F)c(-c2ccc(OC)c(C(=O)N[C@@H]3C4CCC(/C4=C/C4CC4)[C@@H]3C(=O)Nc3ccc(F)c(C(F)(F)F)c3)c2)c1 (stereo partly shown) [compound 237]  2 nM
8. COc1ccc(-c2cc(C(COC(=O)NC3CCC3)C(F)(F)F)ccc2F)cc1C(=O)N[C@H]1[C@@H](C(=O)Nc2ccc(F)c(C(F)(F)F)c2)[C@H]2CC[C@@H]1/C2=C\C1CCCC1 (stereo partly shown) [compound 893]  2.2 nM
9. COc1c(F)cc(C2=NOC3CC(CO)CC23)cc1C(=O)N[C@H]1[C@@H](C(=O)N[C@H](C)C2(C)CC(F)(F)C2)[C@H]2CC[C@@H]1/C2=C\C1CC1 (stereo partly shown) [compound 870]  2.2 nM
10. COc1ccc(C2=NOC3CC(C(N)=O)CC23)cc1C(=O)N[C@H]1[C@@H](C(=O)Nc2ccc(F)c(C(F)(F)F)c2)[C@H]2CC[C@@H]1/C2=C\C1CC1 (single isomer, unassigned) [compound 459]  2.5 nM
11. COc1ccc(-c2cc(C(NC(=O)CC3CCOCC3)C(=O)O)ccc2F)cc1C(=O)N[C@@H]1C2CCC(/C2=C/C(F)(F)F)[C@@H]1C(=O)Nc1ccc(F)c(C(F)(F)F)c1 (stereo partly shown) [compound 242]  3 nM
12. O=C(N[C@H]1[C@@H](C(=O)Nc2ccc(F)c(C(F)(F)F)c2)[C@H]2CC[C@@H]1/C2=C\C1CC1)c1cc(C2=NOC3CC(CO)CC23)ccc1OCC(F)F (stereo partly shown) [compound 783]  3.4 nM
13. COc1ccc(C2=NO[C@H]3C[C@H](CO)C[C@@H]23)cc1C(=O)N[C@H]1[C@@H](C(=O)NC23CC(C)(C2)C3)[C@H]2CC[C@@H]1/C2=C\C[C@@H](O)C(F)(F)F [compound 831]  3.5 nM
14. COc1ccc(C2=NOC3CC(C)(CO)CC23)cc1C(=O)N[C@H]1[C@@H](C(=O)N[C@H](C)C2(C)CC2)[C@H]2CC[C@@H]1/C2=C\c1csc(C(F)(F)F)n1 (stereo partly shown) [compound 915]  4 nM
15. O=C(NC1CCC1)O[C@@H](c1ccc(F)c(-c2ccc(OCCO)c(C(=O)N[C@@H]3C4CCC(/C4=C/C(F)(F)F)[C@@H]3C(=O)Nc3ccc(F)c(C(F)(F)F)c3)c2)c1)C(F)(F)F (stereo partly shown) [compound 319]  13 nM
16. COc1ccc(C2=NOC3COCC23)cc1C(=O)N[C@H]1[C@@H](C(=O)NC23CC(C#N)(C2)C3)[C@H]2CC[C@@H]1/C2=C\C1CC1 (stereo partly shown) [compound 777]  13.9 nM
17. CN(C)c1ccc(C2=NOC3COCC23)cc1C(=O)N[C@H]1[C@@H](C(=O)Nc2ccc(F)c(C(F)(F)F)c2)[C@H]2CC[C@@H]1/C2=C\C(F)(F)F (single isomer, unassigned) [compound 518]  18.4 nM
18. COC(=O)N1CC2ON=C(c3ccc(OC)c(C(=O)N[C@H]4[C@@H](C(=O)Nc5ccc(F)c(C(F)(F)F)c5)[C@H]5CC[C@@H]4/C5=C\C4CC4)c3)C2C1 (stereo partly drawn) [Example 438, methyl 3-(3-(((1R,2R,3S,4R,Z)-7-(cyclopropylmethylene)-3-((4-fluoro-3-(trifluoromethyl)phenyl)carbamoyl)bicyclo[2.2.1]heptan-2-yl)carbamoyl)-4-methoxyphenyl)-3a,4,6,6a-tetrahydro-5H-pyrrolo[3,4-d]isoxazole-5-carboxylate]  24 nM
19. COc1ccc(C2=NOC3COCC23)cc1C(=O)N[C@H]1[C@@H](C(=O)NCc2c(C)cccc2C)[C@H]2CC[C@@H]1/C2=C\C1CC1 (stereo partly shown) [compound 540]  29.4 nM
20. COc1ccc(C2=NOC3CNCC23)cc1C(=O)N[C@H]1[C@@H](C(=O)Nc2ccc(F)c(C(F)(F)F)c2)[C@H]2CC[C@@H]1/C2=C\C1CC1 (stereo partly drawn) [Example 437, (1R,2S,3R,4R,Z)-7-(cyclopropylmethylene)-N-(4-fluoro-3-(trifluoromethyl)phenyl)-3-(2-methoxy-5-(3a,5,6,6a-tetrahydro-4H-pyrrolo[3,4-d]isoxazol-3-yl)benzamido)bicyclo[2.2.1]heptane-2-carboxamide]  31 nM
21. COc1ccc(-c2cnc3c(cnn3CC(=O)O)c2)cc1C(=O)N[C@@H]1C2CCC(/C2=C/C(F)(F)F)[C@@H]1C(=O)Nc1ccc(F)c(C(F)(F)F)c1 (stereo partly shown) [compound 317]  31 nM
22. COc1ccc(-c2cc(C(N)=O)on2)cc1C(=O)N[C@@H]1C2CCC(/C2=C/C2CC2)[C@@H]1C(=O)Nc1ccc(F)c(C(F)(F)F)c1 (stereo partly shown) [compound 426]  45 nM
23. COc1ccc(C2=NOC3CC(O)CC23)cc1C(=O)N[C@H]1[C@@H](C(=O)Nc2ccc(F)c(C(F)(F)F)c2)[C@H]2CC[C@@H]1/C2=C\C1CCC1 (mixture of isomers) [Example 406, (1R,2S,3R,4R,Z)-7-(cyclobutylmethylene)-N-(4-fluoro-3-(trifluoromethyl)phenyl)-3-(5-(5-hydroxy-3a,5,6,6a-tetrahydro-4H-cyclopenta[d]isoxazol-3-yl)-2-methoxybenzamido)bicyclo[2.2.1]heptane-2-carboxamide]  48 nM
24. COc1ccc(C2=NOC3CC(F)CC23)cc1C(=O)N[C@H]1[C@@H](C(=O)Nc2ccc(F)c(C(F)(F)F)c2)[C@H]2CC[C@@H]1/C2=C\C1CC1 (stereo partly drawn) [Example 427, (1R,2S,3R,4R,Z)-7-(cyclopropylmethylene)-N-(4-fluoro-3-(trifluoromethyl)phenyl)-3-(5-(5-fluoro-3a,5,6,6a-tetrahydro-4H-cyclopenta[d]isoxazol-3-yl)-2-methoxybenzamido)bicyclo[2.2.1]heptane-2-carboxamide]  54 nM
25. COc1ccc(-c2cccn3c(C(=O)OCc4ccccc4)cnc23)cc1C(=O)N[C@@H]1C2CCC(/C2=C/C(F)(F)F)[C@@H]1C(=O)Nc1ccc(F)c(C(F)(F)F)c1 (stereo partly shown) [compound 315]  60 nM
26. C=C(C)/C=C1\C2CCC1[C@H](C(=O)Nc1ccc(F)c(C(F)(F)F)c1)[C@@H]2NC(=O)c1cc(F)c(F)cc1OC (stereo partly shown) [compound 43]  70 nM
27. COc1ccc(C2=NOC3COCC23)cc1C(=O)N[C@H]1[C@@H](C(=O)NC2(C(C)C)CC2)[C@H]2CC[C@@H]1/C2=C\C1CC1 (stereo partly shown) [compound 584]  77.3 nM
28. COc1ccc(C2CCCN2CC(C)(C)O)cc1C(=O)N[C@@H]1C2CCC(C2=CC2CC2)[C@@H]1C(=O)Nc1ccc(F)c(C(F)(F)F)c1 (stereo partly shown) [compound 607]  128 nM
29. CCOC(=O)C(NC(=O)C1CCOCC1)c1cnn(-c2ccc(OC)c(C(=O)N[C@@H]3C4CCC(/C4=C/C(F)(F)F)[C@@H]3C(=O)Nc3ccc(F)c(C(F)(F)F)c3)c2)c1 (stereo partly shown) [Example 346]  169 nM
30. COc1cc(F)c(F)cc1C(=O)N[C@@H]1C2CCC(/C2=C/c2cccs2)[C@@H]1C(=O)Nc1ccc(F)c(C(F)(F)F)c1 (stereo partly shown) [compound 124]  210 nM
31. COc1ccc(C2=NOC3COCC23)cc1C(=O)N[C@H]1[C@@H](C(=O)NC2(Cc3ccccc3)CC2)[C@H]2CC[C@@H]1/C2=C\C1CC1 (stereo partly shown) [compound 653]  285 nM
32. COc1cc(F)c(F)cc1C(=O)N[C@@H]1C2CCC(/C2=C/Cc2ccccc2)[C@@H]1C(=O)Nc1ccc(F)c(C(F)(F)F)c1 (stereo partly shown) [compound 57]  550 nM
33. COc1ccc(-c2cc(C(=O)O)ccc2F)cc1C(=O)N[C@@H]1C2CCC(/C2=C/C2CC2)[C@@H]1C(=O)NC(C)C (stereo partly shown) [compound 300]  575 nM
34. COc1ccc(-c2cc([C@H](OC(=O)NC3CCC3)C(F)(F)F)ccc2F)cc1C(=O)N[C@@H]1C2/C(=C\C(F)(F)F)C(C(O)C2O)[C@@H]1C(=O)Nc1ccc(F)c(C(F)(F)F)c1 (stereo partly shown) [Example 348]  1310 nM
35. COc1ccc(N2CCC(NC(=O)OC(C)(C)C)C2)cc1C(=O)N[C@@H]1C2CCC(/C2=C/C(F)(F)F)[C@@H]1C(=O)Nc1ccc(F)c(C(F)(F)F)c1 (stereo partly shown) [compound 334]  1370 nM
36. COc1ccc(-c2nn[nH]n2)cc1C(=O)N[C@@H]1C2CCC(C2=C(C)C)[C@@H]1C(=O)Nc1ccc(F)c(C(F)(F)F)c1 (stereo partly shown) [Example 144]  2100 nM
37. COc1ccc(-c2cc(C(=O)O)ccc2F)cc1C(=O)N[C@@H]1C2CCC(/C2=C/C2CC2)[C@@H]1C(=O)NC(C)c1nccs1 (stereo partly shown) [compound 309]  4380 nM
